The assay deals with T1, human RXFP1 (Homo sapiens, UniProt Q9HBX9).
T1 construct: expressed in transfected cells
T1 sequence (Q9HBX9 1-757): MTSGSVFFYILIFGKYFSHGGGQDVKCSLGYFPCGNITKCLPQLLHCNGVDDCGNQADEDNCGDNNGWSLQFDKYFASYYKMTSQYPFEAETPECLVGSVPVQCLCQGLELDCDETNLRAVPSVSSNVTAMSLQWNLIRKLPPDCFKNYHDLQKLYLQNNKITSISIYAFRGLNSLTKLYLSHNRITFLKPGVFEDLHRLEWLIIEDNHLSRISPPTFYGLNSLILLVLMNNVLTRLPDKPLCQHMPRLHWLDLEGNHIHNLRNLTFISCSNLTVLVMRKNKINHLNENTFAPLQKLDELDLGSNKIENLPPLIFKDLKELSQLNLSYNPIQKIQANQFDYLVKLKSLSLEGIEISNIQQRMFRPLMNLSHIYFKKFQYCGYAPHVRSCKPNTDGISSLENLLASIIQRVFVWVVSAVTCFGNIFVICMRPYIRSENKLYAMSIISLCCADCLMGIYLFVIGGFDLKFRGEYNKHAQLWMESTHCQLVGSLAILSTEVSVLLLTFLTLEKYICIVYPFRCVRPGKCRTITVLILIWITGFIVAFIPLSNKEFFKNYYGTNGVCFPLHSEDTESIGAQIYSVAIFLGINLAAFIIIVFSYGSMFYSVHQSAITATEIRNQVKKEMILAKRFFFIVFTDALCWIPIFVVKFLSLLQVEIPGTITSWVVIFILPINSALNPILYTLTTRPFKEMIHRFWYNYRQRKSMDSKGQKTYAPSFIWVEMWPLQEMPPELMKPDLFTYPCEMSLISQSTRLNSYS
The assay is described as follows: human RXFP1 (hRXFP1) HEK293 cAMP assay (HTRF). In kind it is cell-based. As to conditions: HEK293 cells stably expressing human RXFP1, 30 min at room temperature. In outline: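 Intracellular cAMP was quantified by HTRF after a 30 min room-temperature exposure of hRXFP1-HEK293 cells (1500/well) to compound at 0.010 nM–50 µM final, 2% DMSO. Buffer was HBSS with 20 mM HEPES, 0.05% BSA and 0.5 mM IBMX; values came from a 4-parameter logistic fit.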
(Changes in cAMP serve as a functional read-out for many G protein-coupled receptors.)
Regarding `COc1ncc(-c2cc(C(=O)O)ccc2F)nc1C(=O)N[C@@H]1C2CCC(C2=C(C)C)[C@@H]1C(=O)Nc1ccc(F)c(C(F)(F)F)c1` (stereo partly drawn) [Example 24, 4-Fluoro-3-(6-{[(2R,3S)-3-{[4-fluoro-3-(trifluoromethyl)phenyl]carbamoyl}-7-(propan-2-ylidene)bicyclo [2.2.1]heptan-2-yl]carbamoyl}-5-methoxypyrazin-2-yl)benzoic acid], the EC50 – broadly, the concentration at which the effect is half-maximal – came out at 1000 nM.
The value for `O=C(O)c1ccc(F)c(-c2cnc(OCCO)c(C(=O)N[C@H]3[C@@H](C(=O)Nc4ccc(F)c(C(F)(F)F)c4)[C@H]4CC[C@@H]3/C4=C\C(F)(F)F)c2)c1` [Example 40, 4-fluoro-3-(5-(((1R,2R,3S,4R,Z)-3-((4-fluoro-3-(trifluoromethyl)phenyl)carbamoyl)-7-(2,2,2-trifluoroethylidene)bicyclo[2.2.1]heptan-2-yl)carbamoyl)-6-(2-hydroxyethoxy)pyridin-3-yl)benzoic acid] was 39 nM; that for `COc1cc2c(cc1C(=O)N[C@H]1[C@@H](C(=O)Nc3ccc(F)c(C(F)(F)F)c3)[C@H]3CC[C@@H]1/C3=C\C1CC1)CN(C(=O)OC(C)(C)C)CC2` [Example 82, tert-butyl 7-(((1R,2R,3S,4R,Z)-7-(cyclopropylmethylene)-3-((4-fluoro-3-(trifluoromethyl)phenyl)carbamoyl)bicyclo[2.2.1]heptan-2-yl)carbamoyl)-6-methoxy-3,4-dihydroisoquinoline-2(1H)-carboxylate] was 660 nM; that for `COc1cc2c(cc1C(=O)N[C@H]1[C@@H](C(=O)Nc3ccc(F)c(C(F)(F)F)c3)[C@H]3CC[C@@H]1/C3=C\C1CC1)CN(S(C)(=O)=O)CC2` [Example 89, N-[(1R,2R,3S,4R)-7-(cyclopropyl-methylidene)-3-{[4-fluoro-3-(trifluoromethyl)phenyl]carbamoyl}bicyclo[2.2.1]heptan-2-yl]-2-methanesulfonyl-6-methoxy-1,2,3,4-tetrahydro-isoquinoline-7-carboxamide] was 230 nM.
The value for `O=C(Nc1ccccc1)O[C@@H](c1ccc(F)c(-c2cnc(OCCO)c(C(=O)N[C@H]3[C@@H](C(=O)Nc4ccc(F)c(C(F)(F)F)c4)[C@H]4CC[C@@H]3/C4=C\C(F)(F)F)c2)c1)C(F)(F)F` [Example 42, (S)-2,2,2-trifluoro-1-(4-fluoro-3-(5-(((1R,2R,3S,4R,Z)-3-((4-fluoro-3-(trifluoromethyl)phenyl)carbamoyl)-7-(2,2,2-trifluoroethylidene)bicyclo[2.2.1]heptan-2-yl)carbamoyl)-6-(2-hydroxyethoxy)pyridin-3-yl)phenyl)ethyl phenylcarbamate] was 8.1 nM; that for `COc1ncc(C2=NOC3CC(CO)CC23)cc1C(=O)N[C@H]1[C@@H](C(=O)Nc2ccc(F)c(C(F)(F)F)c2)[C@H]2CC[C@@H]1/C2=C\CCC(F)(F)F` (stereo partly drawn) [Example 139, N-((1R,2R,3S,4R,Z)-3-((4-fluoro-3-(trifluoromethyl)phenyl)carbamoyl)-7-(4,4,4-trifluorobutylidene)bicyclo[2.2.1]heptan-2-yl)-5-(5-(hydroxymethyl)-3a,5,6,6a-tetrahydro-4H-cyclopenta[d]isoxazol-3-yl)-2-methoxynicotinamide] was 2.9 nM.
`COc1ncc(C2=NOC3CC(CO)CC23)cc1C(=O)N[C@H]1[C@@H](C(=O)Nc2ccc(F)c(C(F)(F)F)c2)[C@H]2CC[C@@H]1/C2=C\c1cscn1` (stereo partly drawn) [Example 96, N-((1R,2R,3S,4R,Z)-3-((4-fluoro-3-(trifluoromethyl)phenyl)carbamoyl)-7-(thiazol-4-ylmethylene)bicyclo[2.2.1]heptan-2-yl)-5-(5-(hydroxymethyl)-3a,5,6,6a-tetrahydro-4H-cyclopenta[d]isoxazol-3-yl)-2-methoxy-nicotinamide] displayed an EC50 of 1.4 nM.
The figure for `COc1ncc(C2=NOC3CC(C(C)(C)O)CC23)cc1C(=O)N[C@H]1[C@@H](C(=O)Nc2ccc(F)c(C(F)(F)F)c2)[C@H]2CC[C@@H]1/C2=C\C1CC1` (stereo partly drawn) [Example 109, N-((1R,2R,3S,4R,Z)-7-(cyclopropylmethylene)-3-((4-fluoro-3-(trifluoromethyl)phenyl)carbamoyl)bicyclo[2.2.1]heptan-2-yl)-5-(5-(2-hydroxypropan-2-yl)-3a,5,6,6a-tetrahydro-4H-cyclopenta[d]isoxazol-3-yl)-2-methoxynicotinamide] is 2.7 nM.
The compound `COc1ncc(C2=NOC3COCC23)cc1C(=O)N[C@H]1[C@@H](C(=O)Nc2ccc(F)c(C(F)(F)F)c2)[C@H]2CC[C@@H]1/C2=C\C1CC1` (single isomer, unassigned) [Example 61] showed an EC50 of 3.7 nM.
The value for `COc1cscc1C(=O)N[C@@H]1C2CCC(C2=C(C)C)[C@@H]1C(=O)Nc1ccc(F)c(C(F)(F)F)c1` (stereo partly drawn) [Example 9, N-[(2R,3S)-3-{[4-fluoro-3-(trifluoromethyl)phenyl]carbamoyl}-7-(propan-2-ylidene)bicyclo [2.2.1]heptan-2-yl]-4-methoxy-thiophene-3-carboxamide] was 1400 nM.
For `O=C(N[C@@H]1C2CCC(/C2=C/C(F)(F)F)[C@@H]1C(=O)Nc1ccc(F)c(C(F)(F)F)c1)c1cc(=O)c2ccccc2o1` (stereo partly drawn) [Example 16, N-[(2R,3S,7Z)-3-{[4-fluoro-3-(trifluoromethyl)phenyl]carbamoyl}-7-(2,2,2-trifluoroethylidene)bicyclo[2. 2.1]heptan-2-yl]-4-oxo-4H-chromene-2-carboxamide], the EC50 was 3800 nM.
The value for `COc1ncc(-c2cc([C@H](OC(=O)NC3CCOCC3)C(F)(F)F)ccc2F)cc1C(=O)N[C@@H]1C2CCC(/C2=C/C2CC2)[C@@H]1C(=O)Nc1ccc(F)c(C(F)(F)F)c1` (stereo partly drawn) [Example 185, (1S)-1-[3-(5-{[(2R,3S,7Z)-7-(cyclopropyl-methylidene)-3-{[4-fluoro-3-(trifluoromethyl)phenyl]carbamoyl}bicyclo[2.2.1]heptan-2-yl]carbamoyl}-6-methoxypyridin-3-yl)-4-fluorophenyl]-2,2,2-trifluoroethyl N-(oxan-4-yl)carbamate] was 2.5 nM; that for `O=C(O)c1ccc(F)c(-c2cnc(OCCO)c(C(=O)N[C@@H]3C4CCC(/C4=C/C(F)(F)F)[C@@H]3C(=O)Nc3ccc(F)c(C(F)(F)F)c3)n2)c1` (stereo partly drawn) [Example 47, 4-Fluoro-3-(6-{[(2R,3S,7Z)-3-{[4-fluoro-3-(trifluoromethyl)phenyl]carbamoyl}-7-(2,2,2-trifluoroethylidene)bicyclo[2.2.1]heptan-2-yl]carbamoyl}-5-(2-hydroxyethoxy)pyrazin-2-yl)benzoic acid] was 200 nM.
The figure for `COc1ncc(C2=NO[C@H]3C[C@H](C#N)CN23)cc1C(=O)N[C@@H]1C2CCC(/C2=C/C2CC2)[C@@H]1C(=O)Nc1ccc(F)c(C(F)(F)F)c1` (stereo partly drawn) [Example 134, 5-((6S,7aS)-6-cyano-5,6,7,7a-tetrahydropyrrolo [1,2-d][1,2,4]oxadiazo 1-3-yl)-N-((1R,2R,3S,4R,Z)-7-(cyclopropyl-methylene)-3-((4-fluoro-3-(trifluoromethyl)phenyl)carbamoyl)bicyclo[2.2.1]heptan-2-yl)-2-methoxynicotinamide] is 3.2 nM; for `CC1Cc2cc(C3=NOC4CC(O)CC34)cc(C(=O)N[C@H]3[C@@H](C(=O)Nc4ccc(F)c(C(F)(F)F)c4)[C@H]4CC[C@@H]3/C4=C\C3CC3)c2O1` (stereo partly drawn) [Example 154, N-[(1R,2R,3S,4R, 7Z)-7-(cyclopropyl-methylidene)-3-{[4-fluoro-3-(trifluoromethyl)phenyl]carbamoyl}bicyclo[2.2.1]heptan-2-yl]-5-{5-hydroxy-3aH,4H,5H,6H, 6aH-cyclopenta[d][1, 2]oxazol-3-yl}-2-methyl-2,3-dihydro-1-benzofuran-7-carboxamide] it is 4.1 nM; for `COc1ncc(C2=NOC3CC(O)CC23)cc1C(=O)N[C@H]1[C@@H](C(=O)Nc2ccc(F)c(C(F)(F)F)c2)[C@H]2CC[C@@H]1/C2=C\C1CCCC1` (stereo partly drawn) [Example 126, N-((1R,2R,3S,4R,Z)-7-(cyclopentylmethylene)-3-((4-fluoro-3-(trifluoromethyl)phenyl)carbamoyl)bicyclo[2.2.1]heptan-2-yl)-5-(5-hydroxy-3a,5,6,6a-tetrahydro-4H-cyclopenta[d]isoxazol-3-yl)-2-methoxynicotinamide] it is 4.2 nM.
In turn, `COc1cc2c(cc1C(=O)N[C@@H]1C3CCC(/C3=C/C3CC3)[C@@H]1C(=O)Nc1ccc(F)c(C(F)(F)F)c1)CCN(S(C)(=O)=O)C2` (stereo partly drawn) [Example 93] returned an EC50 of 1700 nM.
The value for `COc1ncc(C2=NOC3CC(O)CC23)cc1C(=O)N[C@H]1[C@@H](C(=O)Nc2ccc(F)c(C(F)(F)F)c2)[C@H]2CC[C@@H]1/C2=C\C1CC1` (stereo partly drawn) [Example 138, N-((1R,2R,3S,4R,Z)-7-(cyclopropyl-methylene)-3-((4-fluoro-3-(trifluoromethyl)phenyl)carbamoyl)bicyclo[2.2.1]heptan-2-yl)-5-(5-hydroxy-3a,5,6,6a-tetrahydro-4H-cyclopenta[d]isoxazol-3-yl)-2-methoxynicotinamide] was 4.8 nM.

The record behind these values is US20250011288A1 (BRISTOL-MYERS SQUIBB COMPANY, priority 2021, published 2025).
